These results are taken from patent publication US20210300962A1, “LIPID PRODRUGS OF PREGNANE NEU[…] USES THEREOF” (PureTech LYT, Inc., priority 2018, published 2021).

A short description of series [1]: Rat pharmacokinetic studies: plasma allopregnanolone after oral prodrug or ALLO, and after IV ALLO. In kind it is in vivo, male Sprague-Dawley rats. How it is done: In order to assess the oral bioavailability of test compounds, pharmacokinetic studies were conducted using the following procedure. The day before drug administration, male Sprague-Dawley rats (240-320 g) were anesthetized and the carotid artery was cannulated. The rats were then allowed to regain consciousness and fasted overnight prior to the commencement of experiments with free access to water. The next morning, formulations containing parent compounds or prodrugs were administered via oral gavage or via the jugular vein cannula, and blood samples were collected from the carotid artery cannula from −5 min up to 24 h post dosing. During the blood sample collection period the rats had free access to water but remained fasted for a further 8 h following drug administration. In these allopregnanolone (ALLO) related studies, the blood samples were centrifuged at 4500×g for 5 min to separate plasma. Plasma samples were stored at −20° C. prior to assay by HPLC-MS-MS. The whole blood or plasma samples were assayed for free drug (i.e. non-glyceride associated drug) and were not hydrolized prior to assay (as was the case with the lymph samples).
FIG. 3 illustrates dose-normalized ALLO plasma concentrations following oral gavage of ALLO related formulations to conscious, carotid artery-cannulated male SD rats. The ALLO oral formulation for each rat contained 2 mg of parent ALLO (i.e., non-prodrug allopregnanolone) suspended in 2 ml of suspending vehicle (0.50 sodium carboxymethyl cellulose, 0.4% Tween 80 and 0.9% NaCl in water). Prodrug formulations for each rat contained 2 mg of the ALLO prodrug dispersed in 40 mg oleic acid, 25 mg Tween 80 and 2 ml PBS. Doses were normalized to a 2 mg/kg equivalent dose of ALLO. Data are shown as mean±SD n≥3 or mean±range when n=2. […] Doses are normalized to a 2 mg/kg equivalent ALLO dose and data are presented as mean±SD when n≥3 or mean±range when n=2.
Also shown (bottom) is the calculated area under the curve (AUC) over 0-24 h for each of the test compounds as a fraction of the IV-administered allpregnanolone control.

Series [2] can be described thus: Non-human primate pharmacokinetic studies: plasma ALLO after oral ALLO or prodrug, and after IV ALLO. In kind it is in vivo, male cynomolgus monkeys. To be noted: cynomolgus monkeys; for Vd: iv. How it is done:
For the non-human primate studies, male cynomolgus monkeys were held in a large-animal research facility prior to the commencement of studies. The monkeys were fasted overnight up to 30 min prior to drug administration. Thirty minutes prior to drug administration, each monkey received 30 mL of Ensure Milkshake via oral gavage and was allowed access to a normal ration of primate chow. The primate chow was removed at the time of drug administration and was then returned 4 hours after drug administration. Water was available ad libitum throughout the study for all monkeys.
Test compounds were prepared in a long-chain lipid-based self-emulsifying drug delivery system (SEDDS) consisting of 30.5% w/w soybean oil, 30.5% w/w Maisine-CC, 31.6% w/w Cremophor EL, and 7.4% w/w ethanol. Parent ALLO (i.e., non-prodrug allopregnanolone) was prepared in a formulation of 20% aqueous hydroxypropyl-p-cyclodextrin. Formulations were filled into hard gelatin capsules. Test compounds were dosed at 5 mg/kg, and parent ALLO was dosed at 1.5 mg/kg. Drug was administered in a single capsule followed by 10 mL of water by oral gavage. For the IV group, parent ALLO (0.5 mg/kg dose) was administered as an intravenous bolus (formulation contained ALLO at a concentration of 1.5 mg/mL) by way of a percutaneous catheter placed in a peripheral vein followed by a 2 mL flush with normal saline prior to removal of the catheter.
After oral administration, blood samples (approx. 1 mL each) were taken via venipuncture of a peripheral vein 5 min prior to administration up to 48 hours post-dosing. Blood samples were transferred into tubes containing dipotassium EDTA anticoagulant, and the tubes were placed on crushed ice until processing. Within 30 minutes of collection, the blood samples were processed to isolate plasma by centrifuging at 2200×g for 10 minutes at 5° C.±3° C. The plasma samples were stored in polypropylene tubes at −80° C. prior to analysis.
Doses are normalized to a 1.5 mg/kg equivalent ALLO dose and data are presented as mean±SD (n=6). AUC was calculated using the trapezoidal method in PKsolver—non-compartment model. Statistical significance is defined as α<0.05 when using One-way ANOVA followed by Tukey's test (paired comparison).

Series [3] in a line: Dog pharmacokinetic studies: plasma ALLO after oral ALLO or prodrug, and after IV ALLO. It counts as in vivo, male beagle dogs. The conditions noted are these: beagle dogs; for Vd: beagle, iv. Here is the method: For the dog studies, male beagle dogs (body weights between 9.1-11.7 kg) were held in a large-animal research facility prior to the commencement of studies. The dogs were fasted for 12 h up to 30 min prior to drug administration. At 30 minutes prior to drug dosing, each animal received ˜20 g of high fat food (Teklad, TD.07096), then each animal was offered 100 g of beef-flavored canned food. Food was removed immediately prior to dosing. Following the 4 hour sample collection, food was returned (any remaining canned food and 200 g of regular diet). Water was available ad libitum throughout the study for all dogs.
For oral administration, test compounds were prepared in a suitable formulation such as a long-chain lipid based self-emulsifying drug delivery system (SEDDS) consisting of 30.5% w/w soybean oil, 30.5% w/w Maisine-CC, 31.6% w/w Cremophor EL and 7.4% w/w ethanol. Formulations were filled into hard gelatin capsules. Each animal received 2 size 000 capsules that in total contained ALLO (at 1.5 mg/kg dose) or ALLO prodrug (at 5 mg/kg dose, equivalent to approx. 1.5 mg/kg parent ALLO) in 2 grams of SEDDS formulation. Compound dissolved in the formulation was administrated to the fed dog by placing the capsules as far posterior to the pharynx as possible, closing the mouth and rubbing the throat to stimulate swallowing. Subsequently 10 mL of water was administered orally via a syringe.
For the IV group, parent ALLO (0.5 mg/kg dose) was administered as an intravenous bolus (formulation contained ALLO at concentration of 1.5 mg/mL) by way of a percutaneous catheter placed in a peripheral vein, followed by a 2 mL flush with normal saline.
Blood samples (approx. 1.5 mL each) were taken via venepuncture of the cephalic vein 5 min prior to administration up to 48 hours post-dosing. During the blood sample collection period the animals had free access to water but remained fasted for a further 4 hours following drug administration.
Plasma was separated by centrifugation and aliquots of each plasma sample transferred into eppendorf tubes and stored at −80° C. prior to analysis.
Doses are normalized to a 1.5 mg/kg equivalent ALLO dose and data are presented as mean±SD (n=4). AUC was calculated using the trapezoidal method in PKsolver—non-compartment model. Statistical significance is defined as α<0.05 when using One-way ANOVA followed by Tukey's test (paired comparison).

For the compound `CC(=O)[C@H]1CC[C@H]2[C@@H]3CC[C@H]4C[C@H](O)CC[C@]4(C)[C@H]3CC[C@]12C` [Allopregnanolone, 5α-pregnan-3α-ol-20-one], the AUC in series [1] (male, Sprague-Dawley, plasma, 2 mg/kg, rat, IV, equivalent dose of allopregnanolone, n=1, read-out: AUC after intravenous administration) is about 1.45 µM·h. The Cmax result was “below LOQ)” in series [1] (plasma Allo after oral gavage to rats, doses normalized to 2 mg/kg equivalent ALLO, mean±SD (n≥3) or mean±range (n=2)); 4.45 ± 0.73 µM in series [2] (male, cynomolgus monkey, plasma, 0.5 mg/kg, IV bolus ALLO, normalized to 1.5 mg/kg, mean±SD (n=6)); 3.5 ± 0.572 µM in series [3] (male, dog, plasma, 0.5 mg/kg, IV bolus ALLO, normalized to 1.5 mg/kg, mean±SD (n=4), read-out: Cmax (extrapolated C0)). Also, the “plasma levels after oral administration” value in series [1] (rat, oral parent allopregnanolone) is reported as “below the limit of quantification”. Moreover, the “Apparent BA” value in series [2] (IV ALLO (reference)) stood at 100%; in series [3] (IV ALLO (reference)), 100.0%. Further, the clearance in series [2] (male, cynomolgus monkey, plasma, 0.5 mg/kg, IV ALLO, read-out: Cl (clearance)) was 42.2 ± 9 mL/min/kg; in series [3] (male, dog, plasma, 0.5 mg/kg, IV ALLO, read-out: Cl (clearance)) it was 160 ± 21.7 mL/min/kg. The Tmax in series [2] (male, cynomolgus monkey, plasma, 0.5 mg/kg, IV bolus ALLO) was 4.8 min; in series [3] (male, dog, plasma, 0.5 mg/kg, IV bolus ALLO), 0 h. For the same compound, the AUC(0-inf) in series [2] (male, cynomolgus monkey, plasma, 0.5 mg/kg, IV bolus ALLO, normalized to 1.5 mg/kg) worked out at 1.93 ± 0.373 µM·h; in series [3] (male, dog, plasma, 0.5 mg/kg, IV bolus ALLO, normalized to 1.5 mg/kg), 0.498 ± 0.0633 µM·h. Further, the half-life in series [2] (male, cynomolgus monkey, plasma, 0.5 mg/kg, IV bolus ALLO, read-out: T1/2 (terminal phase half-life) (converted)) is 7.4 ± 1.2 h; in series [3] (male, dog, plasma, 0.5 mg/kg, IV bolus ALLO, read-out: T1/2 (elimination phase half-life) (converted)), 10.3 ± 0.8 h. The Vd in series [2] (male, cynomolgus monkey, plasma, 0.5 mg/kg, IV ALLO, read-out: VSS (volume of distribution during the steady state phase)) worked out at 2.6 ± 0.9 L/kg; in series [2] (male, cynomolgus monkey, plasma, 0.5 mg/kg, IV ALLO, read-out: VZ (volume of distribution during the elimination phase)), 26.9 ± 6.8 L/kg; in series [3] (male, dog, plasma, 0.5 mg/kg, IV ALLO, read-out: VSS (volume of distribution during the steady state phase)) it was 14 ± 1.7 L/kg; in series [3] (male, dog, plasma, 0.5 mg/kg, IV ALLO, read-out: VZ (volume of distribution during the elimination phase)) it was 142 ± 29.5 L/kg.
